Values quoted from earlier work as cited in patent publication US7625888B2, “Fused triazole derivatives as dipeptidyl peptidase-IV inhibitors for the treatment or prevention of diabetes” (Merck & Co., Inc., priority 2004, dated 2009).
Blank lines part the entries; values can stand above or below the compound they belong to.

Experiments:
cardiac allograft = conditions: rats; doubled from day 7
hematopoiesis = conditions: mouse, cyclophosphamide-induced neutropenia
DPP-IV = biological target: T1, DPP-IV (Homo sapiens, UniProt P27487)
T1 construct: GRF is rapidly degraded in plasma to GRF[3-44]
T1 sequence (P27487 39-766 limits assumed, species assumed): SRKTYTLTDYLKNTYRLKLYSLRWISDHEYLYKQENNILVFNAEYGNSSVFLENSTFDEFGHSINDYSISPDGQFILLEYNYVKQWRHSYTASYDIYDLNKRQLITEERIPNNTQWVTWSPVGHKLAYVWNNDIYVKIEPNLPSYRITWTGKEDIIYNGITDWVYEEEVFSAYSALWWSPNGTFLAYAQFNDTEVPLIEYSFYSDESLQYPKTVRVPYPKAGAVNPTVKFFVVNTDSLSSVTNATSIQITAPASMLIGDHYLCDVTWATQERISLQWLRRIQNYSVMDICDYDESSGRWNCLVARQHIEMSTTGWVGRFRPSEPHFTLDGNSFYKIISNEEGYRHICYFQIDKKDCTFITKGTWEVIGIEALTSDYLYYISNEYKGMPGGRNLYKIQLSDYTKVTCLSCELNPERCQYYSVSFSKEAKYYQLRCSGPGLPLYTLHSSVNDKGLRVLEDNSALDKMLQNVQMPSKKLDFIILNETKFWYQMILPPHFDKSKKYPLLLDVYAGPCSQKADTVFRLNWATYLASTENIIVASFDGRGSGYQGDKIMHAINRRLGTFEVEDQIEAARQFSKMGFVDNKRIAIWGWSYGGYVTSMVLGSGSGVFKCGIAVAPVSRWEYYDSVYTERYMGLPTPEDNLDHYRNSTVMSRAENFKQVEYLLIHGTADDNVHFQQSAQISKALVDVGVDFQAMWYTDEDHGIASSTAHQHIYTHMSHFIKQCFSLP

Compound: CC(C)N1CCC(c2ccccc2)(c2ccccc2)CC1 [Prodipine, Pro-Pro-diphenyl-phosphonate]
- cardiac allograft survival (cardiac allograft): 14 day

Compound: CC(C)[C@H](N)C(=O)N1CCC[C@H]1B(O)O [Val-Boro-Pro]
- effect on hematopoiesis (hematopoiesis): stimulated hematopoiesis

- degradation of GRF in plasma to GRF[3-44] (DPP-IV): prevented
Compound: diprotin A
